Measurements from the supplement of paper PMC10949913.

Legend:
Details in all cases: 48 h
CU-ACC1 [1] = experiment: AC50 viability; higher = less potent
Procedure, shortened: (§1)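 In 1,536-well plates, 500–1,000 cells/well of three adrenocortical carcinoma cell lines in 5 µL medium received 23 nL of each library compound across 11 concentrations. At 48 h, CellTiter-Glo was incubated for 15 minutes at room temperature and luminescence measured. Per-plate normalisation used vehicle and empty-well controls, and only inhibitory or non-responding curve classes were kept when fitting concentration-response curves for AC50 and area under the curve.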

CU-ACC1 [2] = experiment: area under concentration-response curve (viability) (AUC (a.u.)); higher = less active
Procedure, shortened: as §1

NCI-H295R = experiment: as above
Procedure, shortened: as §1

SMILES | AC50 viability (CU-ACC1 [1]) | area under concentration-response curve (CU-ACC1 [2]) | area under concentration-response curve (NCI-H295R)
CN(C)Cc1cccc(N/C(=C2\C(=O)Nc3cc(C(N)=O)ccc32)c2ccccc2)c1 | 23.5 µM | 420 | 
Cc1cc(C)c(C/N=C(\O)c2cc(-c3ccc(N4CCN(C)CC4)nc3)cc3c2c(C)cn3C(C)C)c(O)n1 | 29.5 µM | 490 | 
CN(C)CCCOc1ccc(-c2ccc3ncc4c(c3c2)n(C2CCOCC2)c(=O)n4C)cn1 | 11.5 µM | 487 | 
COc1ccccc1N1CCN(CCN(C(=O)C2CCCCC2)c2ccccn2)CC1 | 20.9 µM | 351 | 378
CN(C)c1ccccc1CN1CCCN(Cc2ccccc2N(C)C)C1c1ccncc1 | 8.33 µM | 448 | 444
CC(=O)N(O)CCCCCNC(=O)CCC(=O)N(O)CCCCCNC(=O)CCC(=O)N(O)CCCCCN | 11.8 µM | 379 | 432
C[C@](O)(COc1ccc(C#N)cc1)C(=O)Nc1ccc(C#N)c(C(F)(F)F)c1 | 0.00118 µM | 322 | 248
N#Cc1ccc(COC[C@H]2O[C@@H](n3c(NCc4ccc(Cl)c(Cl)c4)nc4c(N)ncnc43)[C@H](O)[C@@H]2O)cc1 | 20.9 µM | 464 | 494
CCn1c(-c2nonc2N)nc2cncc(CNC3CCNCC3)c21 | 14.8 µM | 477 | 526
Nc1ncnc(Nc2ccc(OCc3ccccc3)c(Cl)c2)c1/C=N/OCCN1CCOCC1 | 20.9 µM | 324 | 
CN1CC[C@H]([C@@H]1CO)C2=C3OC(=C/C(=O)C3=C(O)C=C2O)\C4=C(Cl)C=C(C=C4)C(F)(F)F | 14.8 µM | 477 | 538
Cc1c(NC(=O)OCC2COCCN2)cn2ncnc(Nc3ccc4c(cnn4Cc4cccc(F)c4)c3)c12 (configuration not stated) | 23.5 µM | 433 | 
COC[C@H]1OC(=O)C2=COC3=C2[C@@]1(C)\C4=C(\[C@@H]5CC[C@H](O)[C@@]5(C)C[C@H]4OC(C)=O)C3=O | 4.17 µM | 311 | 
OCCOc1ccc(/C(=C(/CCCl)c2ccccc2)c2ccccc2)cc1 | 23.5 µM | 470 | 
ClC1=C[NH]N=C1C\2NC(=N\C3=C2C(=O)CCC3)/NC4=NC5=CC=CC=C5O4 (configuration not stated) | 41.7 µM | 426 | 
N[C@@H]1C[C@H]1c1ccccc1 | 0.00186 µM | 341 | 353
N#CC1(c2cccc(C(=O)Nc3cc(Oc4ccc5nc(NC(=O)C6CC6)sc5n4)ccc3F)c2Cl)CC1 | 4.17 µM | 390 | 
C[S+](=O)([O-])c1ccc(-c2cnc(NCc3ccco3)n3cnnc23)cc1 | 2.09 µM | 357 | 
CCCCCNC(=N)N/N=C/c1c[nH]c2ccc(OC)cc12 | 14.8 µM | 416 | 
CC(=O)N1CCN(CCOC2=CC=C(C=C2)C3CCN(CC3)/C4=N/[N]5C(=NN=C5C(F)(F)F)CC4)CC1 | 11.8 µM | 430 | 
CCOC1=CC(=CC=C1C/2=N/[C@@](C)(C3=CC=C(Cl)C=C3)[C@](C)(N2C(=O)N4CCN(CC4)CC(=O)N5CCOCC5)C6=CC=C(Cl)C=C6)C(C)(C)C | 16.3 µM | 440 | 
OC1=CC=C(C=C1)C/2=C/C3=C(OC2)C=C(O)C=C3 | 18.6 µM | 436 | 471
CC1=C(OC2=CC3=NC=N[N]3C=C2)C=CC(=C1)NC4=NC=NC5=C4C=C(N\C6=N\C(C)(C)CO6)C=C5 | 0.00296 µM | 402 | 
CN(C)CCN1C(=O)c2cccc3cc(N)cc(c23)C1=O | 26.3 µM | 452 | 
O=C1N\N=C(\CC2=CC=CC(=C2)C(=O)N3CCN(CC3)C4=NC=CC=C4C#N)C5=CC=CC=C15 | 18.6 µM | 450 | 548
O=C(/C=C/c1ccc(Cl)cc1)N1CCC2(CC1)CN(Cc1ccc(Cl)c(Cl)c1)C(=O)O2 | 20.9 µM | 432 | 
